Results as given in PubChem BioAssay (NCI).
Values joined by “and” are separate entries in the source; they are usually repeats but may differ in a detail not shown here. Equal values may be shown once.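 Each compound was tested at five concentrations against cells in 96-well plates for 48 hours. GI50 = concentration required for 50% inhibition of growth. TGI is the concentration that stops growth completely.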

Experiments:
Experiment in all cases: DTP human tumour cell line panel, 48 h
M14 melanoma = tested on: M14 melanoma
MOLT-4 leukemia = tested on: MOLT-4 leukemia
NCI-H23 lung = tested on: NCI-H23 lung
OVCAR-3 ovarian = tested on: OVCAR-3 ovarian
OVCAR-8 ovarian = tested on: OVCAR-8 ovarian
SF-295 CNS = tested on: SF-295 CNS
SK-MEL-2 melanoma = tested on: SK-MEL-2 melanoma
SK-MEL-28 melanoma = tested on: SK-MEL-28 melanoma
UACC-62 melanoma = tested on: UACC-62 melanoma
SNB-75 CNS = tested on: SNB-75 CNS

SMILES | GI50 (M14 melanoma) [µM] | TGI (M14 melanoma) | GI50 (MOLT-4 leukemia) [µM] | TGI (MOLT-4 leukemia) [µM] | GI50 (NCI-H23 lung) [µM] | TGI (NCI-H23 lung) | GI50 (OVCAR-3 ovarian) [µM] | TGI (OVCAR-3 ovarian) | GI50 (OVCAR-8 ovarian) [µM] | TGI (OVCAR-8 ovarian) | GI50 (SF-295 CNS) [µM] | TGI (SF-295 CNS) [µM] | GI50 (SK-MEL-2 melanoma) [µM] | TGI (SK-MEL-2 melanoma) [µM] | GI50 (SK-MEL-28 melanoma) [µM] | TGI (SK-MEL-28 melanoma) | GI50 (UACC-62 melanoma) [µM] | TGI (UACC-62 melanoma) | GI50 (SNB-75 CNS) [µM] | TGI (SNB-75 CNS)
CC(C)([NH-])CO.CC(C)([NH-])CO.[Cl][Cd][Cl] | 18 | 33.4 µM | 21.8 | 47.3 | 13.9 | 28.4 µM | 20.2 | 38 µM | 52.8 | > 100 µM | > 100 | > 100 | 15.6 | 29.8 | 16.5 | 30.1 µM | 7.82 | 25 µM | – | –
[N-]=[N+]=NCCCCCC(=O)OC(C(=O)c1ccccc1)c1cccc(OCC(=O)NCCOCCOCCNC(=O)CCCC[C@@H]2SC[C@@H]3NC(=O)N[C@@H]32)c1 (stereo partly drawn) | > 100 | > 100 µM | 43.8 | > 100 | > 100 | > 100 µM | – | – | > 100 | > 100 µM | > 100 | > 100 | > 100 | > 100 | > 100 | > 100 µM | > 100 | > 100 µM | 95.8 | > 100 µM
C[C@]12CC/C(=N\O)C=C1CC[C@@H]1C2CC[C@@]2(C)C1CC[C@@H]2OC1CCCCO1 (stereo partly drawn) | – | 35.3 µM | – | 29.9 | – | 31.2 µM | – | 31.9 µM | – | > 100 µM | – | 35.8 | – | 30.4 | – | 42.4 µM | – | > 10 µM | – | 33.2 µM
Cc1ccc(S(=O)(=O)NC2(C=O)CCCC3CCCCC32)cc1 (stereo not drawn) | – | > 100 µM | – | > 100 | – | – | – | > 100 µM | – | > 100 µM | – | – | – | > 100 | – | > 100 µM | – | > 100 µM | – | > 100 µM
O=c1[nH]c(=S)[nH]c2c1CN(CCCN1CCOCC1)CN2 | – | 59.6 µM | – | 83 | – | 54.4 µM | – | > 100 µM | – | 96.4 µM | – | > 100 | – | 39.8 | – | > 100 µM | – | 37.3 µM | – | –
O=C(COc1cc(O)c2c(=O)cc(-c3ccccc3)oc2c1)Nc1ccccc1C(F)(F)F | 27.6 | > 100 µM | 5.46 | > 100 | 3.07 | 11.6 µM | 2.12 | 4.12 µM | 3.67 | 32.1 µM | 2.94 | 9.13 | 15.1 | 38 | – | – | 6.58 | > 100 µM | 1.65 | 4.41 µM
O=C(Nc1ccc(Cl)c(Cl)c1)Nc1c(Oc2ccc(Cl)c(Cl)c2)ccc(Cl)c1S(=O)(=O)O | 1.09 | > 100 µM | 4.1 | > 100 | 2.52 | > 100 µM | – | – | 3.7 | > 100 µM | – | – | – | – | 4.05 | > 100 µM | 1.97 | > 100 µM | 1.51 | 4.53 µM
CCOC(=O)c1cc2c(cc1Cl)SC(N(c1ccc(OC)cc1)S(=O)(=O)c1ccc(Cl)cc1)=NS2(=O)=O | 38.7 | > 100 µM | 30.7 | > 100 | 34.6 | > 100 µM | 22.1 | 54.4 µM | – | – | 54.9 | > 100 | 24.7 | > 100 | 20.8 | 59.9 µM | 34.6 | > 100 µM | 23.3 | 90.4 µM
NCCCCCCCn1c2c(c3ccccc3c1=O)C(=O)c1ccccc1-2 | 1.68 | 3.06 µM | – | – | 2.98 | 8.36 µM | 1.86 | 4.1 µM | 1.69 | 4.82 µM | 1.74 | 4.28 | 2.33 | 5.68 | 1.75 | 3.23 µM | 2.01 | 3.85 µM | 2.17 | 4.55 µM
Cc1ccc(/C(O)=C/C(=O)C(=O)NC23CC4CC(CC(C4)C2)C3)cc1 | – | > 10 µM | – | > 10 | – | > 10 µM | – | – | – | > 10 µM | – | > 10 | – | – | – | > 10 µM | – | > 10 µM | – | > 10 µM
CC12CCC3(OCCO3)C(OC(=O)c3ccccc3)=C1CCC21OCCO1 (stereo not drawn) | – | > 100 µM | – | > 100 | – | – | – | > 100 µM | – | > 100 µM | – | > 100 | – | – | – | > 100 µM | – | > 100 µM | – | > 100 µM
Nc1nc2c(ncn2C2C=CC(CO)C2)c(=O)[nH]1 (stereo not drawn) | – | > 100 µM | – | – | – | > 100 µM | – | > 100 µM | – | > 100 µM | – | > 100 | – | > 100 | – | > 100 µM | – | > 100 µM | – | > 100 µM
COc1ccc(-c2cc(=O)c3cc(OC)ccc3[nH]2)cc1 | – | > 100 µM | – | > 100 | – | > 100 µM | – | > 100 µM | – | > 100 µM | – | > 100 | – | – | – | > 100 µM | – | > 100 µM | – | > 100 µM
CCC/C(=N\NC(=S)N1CC2CCC(CC2)C1)c1ccccn1 | 0.0142 | 0.598 µM and 0.207 µM | – | – | 0.0141 | 2.77 µM and 0.674 µM | 0.0246 | 0.872 µM and 0.622 µM | – | 2.82 µM and 2.1 µM | 0.114 | 1.2 | 1.02 | – | 0.0479 | 5.16 µM and 1.29 µM | 0.0329 | 1.14 µM and 0.642 µM | 0.595 | 3.21 µM and 2.18 µM
COc1ccc2ccccc2c1C1NC(=O)c2ccccc2N1 (stereo not drawn) | – | 10.2 µM | – | 9.2 | – | > 100 µM | – | 1.92 µM | – | 31.8 µM | – | – | – | > 100 | – | > 100 µM | – | – | – | –
COc1cc(C(=O)N2CCN(c3ncnc4ccccc34)CC2)c(N)cc1OCc1ccccc1 | 15.2 | 28.6 µM | 8.55 | 40.4 | 15.6 | 30.4 µM | 11.8 | 25 µM | – | – | 12.8 | 27.8 | 16.5 | 41.3 | 16.5 | 30.5 µM | 12 | 24.3 µM | 7.63 | 20.8 µM
CC(=O)OC(C)(C)/C(C)=C/C(=O)O[C@H]1C(=O)O[C@@H]2C[C@H]3[C@H](C)C(=O)C(O[C@@H]4O[C@H](CO)[C@@H](O)[C@H](O)[C@H]4O)=C[C@]3(C)[C@H]3[C@@H](O)[C@H](O)[C@@]4(C(=O)O)OC[C@]32[C@@H]14 | > 100 | > 100 µM | 33.9 | > 100 | > 100 | > 100 µM | 25.9 | > 100 µM | > 100 | > 100 µM | – | – | > 100 | > 100 | – | > 100 µM | > 100 | > 100 µM | > 100 | > 100 µM
